ChEMBL document CHEMBL4804286, “3-amino-4-(4-(4 (dimethylcarbamoyl) phenyl)-1,4-diazepan-1-yl) thieno [2,3-b] pyridine-2-carboxamide for use in cancer therapy and formulations comprising the same” (2020)
“And” between values parts separate entries of the source, which are not always exact repeats. Equal values may be shown once.

Assays:
Design in all cases: scale not given: the % may be the effect or the level left
[1] = molecular target: Tyrosine-protein kinase FRK (Homo sapiens) (UniProt P42685); assay: Inhibition of human FRK assessed as percent of control at 2000 nM by KINOMEscan assay relative to control
[2] = tested on: Epidermal growth factor receptor (Homo sapiens), P00533 [UNDEFINED MUTATION]; assay: Inhibition of human EGFR […] mutant assessed as percent of control at 2000 nM by KINOMEscan assay relative to control
[3] = molecular target: Protein kinase C theta type (Homo sapiens) (UniProt Q04759); assay: Inhibition of human PRKCQ assessed as percent of control at 2000 nM by KINOMEscan assay relative to control
[4] = molecular target: Mitogen-activated protein kinase 15 (Homo sapiens) (UniProt Q8TD08); assay: Inhibition of human ERK8 assessed as percent of control at 2000 nM by KINOMEscan assay relative to control
[5] = molecular target: Ankyrin repeat and protein kinase domain-containing protein 1 (Homo sapiens) (UniProt Q8NFD2); assay: Inhibition of human ANKK1 assessed as percent of control at 2000 nM by KINOMEscan assay relative to control
[6] = molecular target: Protein kinase C eta type (Homo sapiens) (UniProt P24723); assay: Inhibition of human PRKCH assessed as percent of control at 2000 nM by KINOMEscan assay relative to control
[7] = molecular target: Serine/threonine-protein kinase mTOR (Homo sapiens) (UniProt P42345); assay: Inhibition of human MTOR assessed as percent of control at 2000 nM by KINOMEscan assay relative to control
[8] = molecular target: Serine/threonine-protein kinase PLK4 (Homo sapiens) (UniProt O00444); assay: Inhibition of human PLK4 assessed as percent of control at 2000 nM by KINOMEscan assay relative to control
[9] = molecular target: Mitogen-activated protein kinase kinase kinase kinase 3 (Homo sapiens) (UniProt Q8IVH8); assay: Inhibition of human MAP4K3 assessed as percent of control at 2000 nM by KINOMEscan assay relative to control
[10] = tested on: Phosphatidylinositol 4,5-bisphosphate 3-kinase catalytic subunit alpha isoform (Homo sapiens), P42336 [E545A]; assay: Inhibition of human PIK3CA E545A mutant assessed as percent of control at 2000 nM by KINOMEscan assay relative to control
[11] = molecular target: Aurora kinase C (Homo sapiens) (UniProt Q9UQB9); assay: Inhibition of human AURKC assessed as percent of control at 2000 nM by KINOMEscan assay relative to control
[12] = molecular target: Atypical kinase COQ8B, mitochondrial (Homo sapiens) (UniProt Q96D53); assay: Inhibition of human ADCK4 assessed as percent of control at 2000 nM by KINOMEscan assay relative to control
[13] = molecular target: Tyrosine-protein kinase Fgr (Homo sapiens) (UniProt P09769); assay: Inhibition of human FGR assessed as percent of control at 2000 nM by KINOMEscan assay relative to control
[14] = molecular target: Serine/threonine-protein kinase DCLK3 (Homo sapiens) (UniProt Q9C098); assay: Inhibition of human DCAMKL3 assessed as percent of control at 2000 nM by KINOMEscan assay relative to control
[15] = molecular target: Mitogen-activated protein kinase kinase kinase 4 (Homo sapiens) (UniProt Q9Y6R4); assay: Inhibition of human MAP3K4 assessed as percent of control at 2000 nM by KINOMEscan assay relative to control
[16] = molecular target: Death-associated protein kinase 2 (Homo sapiens) (UniProt Q9UIK4); assay: Inhibition of human DAPK2 assessed as percent of control at 2000 nM by KINOMEscan assay relative to control
Death-associated protein kinase 2 (Homo sapiens), sequence (Q9UIK4 whole entry, looked up): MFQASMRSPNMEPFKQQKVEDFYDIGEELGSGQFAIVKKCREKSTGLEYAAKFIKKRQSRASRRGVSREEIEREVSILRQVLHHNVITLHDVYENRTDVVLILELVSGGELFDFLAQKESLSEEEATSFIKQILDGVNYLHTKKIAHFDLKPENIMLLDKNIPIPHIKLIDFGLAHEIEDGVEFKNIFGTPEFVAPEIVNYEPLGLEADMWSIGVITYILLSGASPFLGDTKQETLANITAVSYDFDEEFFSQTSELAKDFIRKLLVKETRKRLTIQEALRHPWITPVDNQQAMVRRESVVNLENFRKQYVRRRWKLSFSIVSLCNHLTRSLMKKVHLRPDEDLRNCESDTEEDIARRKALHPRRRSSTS

[17] = molecular target: Mitogen-activated protein kinase 13 (Homo sapiens) (UniProt O15264); assay: Inhibition of human p38-delta assessed as percent of control at 2000 nM by KINOMEscan assay relative to control
[18] = molecular target: Serine/threonine-protein kinase PAK 6 (Homo sapiens) (UniProt Q9NQU5); assay: Inhibition of human PAK6 assessed as percent of control at 2000 nM by KINOMEscan assay relative to control
[19] = molecular target: Cyclin-dependent kinase 14 (Homo sapiens) (UniProt O94921); assay: Inhibition of human PFTK1 assessed as percent of control at 2000 nM by KINOMEscan assay relative to control
[20] = molecular target: Serine/threonine-protein kinase BRSK1 (Homo sapiens) (UniProt Q8TDC3); assay: Inhibition of human BRSK1 assessed as percent of control at 2000 nM by KINOMEscan assay relative to control
Serine/threonine-protein kinase BRSK1 (Homo sapiens), sequence (Q8TDC3 whole entry, the tested form may be a part): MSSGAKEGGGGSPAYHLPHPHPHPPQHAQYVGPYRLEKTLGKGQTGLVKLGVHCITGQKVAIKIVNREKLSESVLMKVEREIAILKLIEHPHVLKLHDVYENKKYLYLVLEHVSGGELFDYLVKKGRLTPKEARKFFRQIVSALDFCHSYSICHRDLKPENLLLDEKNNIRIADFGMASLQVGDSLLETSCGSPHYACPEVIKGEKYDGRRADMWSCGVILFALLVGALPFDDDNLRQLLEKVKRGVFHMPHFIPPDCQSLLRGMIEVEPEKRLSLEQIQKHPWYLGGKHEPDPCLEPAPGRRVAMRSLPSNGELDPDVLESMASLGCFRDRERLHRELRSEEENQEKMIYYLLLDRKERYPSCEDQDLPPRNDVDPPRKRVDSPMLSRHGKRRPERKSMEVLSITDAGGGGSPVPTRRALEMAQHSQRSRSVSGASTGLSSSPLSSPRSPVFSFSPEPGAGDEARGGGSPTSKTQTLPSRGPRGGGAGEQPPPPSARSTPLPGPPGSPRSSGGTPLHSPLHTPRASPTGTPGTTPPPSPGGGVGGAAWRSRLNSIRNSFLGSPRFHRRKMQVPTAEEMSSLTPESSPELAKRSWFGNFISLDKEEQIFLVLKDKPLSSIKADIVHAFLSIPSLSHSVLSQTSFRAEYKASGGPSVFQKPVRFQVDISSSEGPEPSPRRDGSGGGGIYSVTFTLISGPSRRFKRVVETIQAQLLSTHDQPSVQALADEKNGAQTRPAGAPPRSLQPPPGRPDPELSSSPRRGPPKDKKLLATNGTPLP

[21] = molecular target: Non-receptor tyrosine-protein kinase TYK2 (Homo sapiens) (UniProt P29597); assay: Inhibition of human TYK2 JH1 catalytic domain assessed as percent of control at 2000 nM by KINOMEscan assay relative to control
Non-receptor tyrosine-protein kinase TYK2 (Homo sapiens), sequence (P29597 whole entry, the tested form may be a part): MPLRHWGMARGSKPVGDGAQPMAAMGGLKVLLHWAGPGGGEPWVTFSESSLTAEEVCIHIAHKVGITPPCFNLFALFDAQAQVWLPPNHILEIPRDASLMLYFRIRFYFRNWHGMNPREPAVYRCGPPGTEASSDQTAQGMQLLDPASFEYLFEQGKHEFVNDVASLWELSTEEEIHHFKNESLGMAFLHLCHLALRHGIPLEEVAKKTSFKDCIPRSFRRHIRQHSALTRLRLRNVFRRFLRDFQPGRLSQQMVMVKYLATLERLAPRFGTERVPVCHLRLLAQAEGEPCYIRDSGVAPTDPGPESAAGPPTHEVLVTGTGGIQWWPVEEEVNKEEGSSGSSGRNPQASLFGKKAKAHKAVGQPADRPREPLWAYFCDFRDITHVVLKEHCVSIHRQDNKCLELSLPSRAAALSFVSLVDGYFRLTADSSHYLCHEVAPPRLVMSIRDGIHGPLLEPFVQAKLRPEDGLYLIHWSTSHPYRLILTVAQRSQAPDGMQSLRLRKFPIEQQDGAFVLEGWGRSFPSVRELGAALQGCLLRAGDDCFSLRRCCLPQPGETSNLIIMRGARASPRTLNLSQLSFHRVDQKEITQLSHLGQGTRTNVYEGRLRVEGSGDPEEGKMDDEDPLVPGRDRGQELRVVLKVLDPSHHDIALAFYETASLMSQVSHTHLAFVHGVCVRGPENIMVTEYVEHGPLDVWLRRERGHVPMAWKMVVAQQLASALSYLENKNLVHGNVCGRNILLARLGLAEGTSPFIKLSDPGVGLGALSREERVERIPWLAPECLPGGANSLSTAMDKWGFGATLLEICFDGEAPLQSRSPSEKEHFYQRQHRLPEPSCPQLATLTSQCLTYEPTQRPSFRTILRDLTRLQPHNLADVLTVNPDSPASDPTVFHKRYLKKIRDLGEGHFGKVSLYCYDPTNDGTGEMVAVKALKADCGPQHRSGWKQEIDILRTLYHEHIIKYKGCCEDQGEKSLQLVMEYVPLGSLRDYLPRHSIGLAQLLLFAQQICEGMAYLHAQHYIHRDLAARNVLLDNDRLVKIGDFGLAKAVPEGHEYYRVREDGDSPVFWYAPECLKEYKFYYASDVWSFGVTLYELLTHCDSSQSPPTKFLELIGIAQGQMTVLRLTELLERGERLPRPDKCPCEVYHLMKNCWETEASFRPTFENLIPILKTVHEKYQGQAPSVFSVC

[22] = molecular target: Insulin receptor-related protein (Homo sapiens) (UniProt P14616); assay: Inhibition of human INSRR assessed as percent of control at 2000 nM by KINOMEscan assay relative to control
Insulin receptor-related protein (Homo sapiens), sequence (P14616 27-742 limits assumed): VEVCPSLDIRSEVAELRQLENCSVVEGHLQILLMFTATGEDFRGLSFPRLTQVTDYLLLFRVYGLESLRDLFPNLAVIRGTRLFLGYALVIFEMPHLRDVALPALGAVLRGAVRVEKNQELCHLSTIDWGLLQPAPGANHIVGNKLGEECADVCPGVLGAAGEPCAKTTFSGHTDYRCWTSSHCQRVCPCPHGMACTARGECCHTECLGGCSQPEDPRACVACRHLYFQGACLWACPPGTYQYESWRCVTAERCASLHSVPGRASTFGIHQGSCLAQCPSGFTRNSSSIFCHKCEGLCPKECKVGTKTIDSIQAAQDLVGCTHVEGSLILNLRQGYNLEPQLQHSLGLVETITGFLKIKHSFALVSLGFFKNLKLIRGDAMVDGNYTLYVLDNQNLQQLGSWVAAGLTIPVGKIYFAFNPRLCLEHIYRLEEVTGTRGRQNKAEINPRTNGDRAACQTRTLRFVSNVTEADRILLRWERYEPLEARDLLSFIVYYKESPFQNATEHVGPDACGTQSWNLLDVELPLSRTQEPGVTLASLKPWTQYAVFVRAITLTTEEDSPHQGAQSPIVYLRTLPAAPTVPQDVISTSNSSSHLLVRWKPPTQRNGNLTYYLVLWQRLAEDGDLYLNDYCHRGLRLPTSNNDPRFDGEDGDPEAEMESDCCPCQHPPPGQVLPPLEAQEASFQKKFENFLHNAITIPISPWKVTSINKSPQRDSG
Insulin receptor-related protein (Homo sapiens), sequence (P14616 747-1297 limits assumed): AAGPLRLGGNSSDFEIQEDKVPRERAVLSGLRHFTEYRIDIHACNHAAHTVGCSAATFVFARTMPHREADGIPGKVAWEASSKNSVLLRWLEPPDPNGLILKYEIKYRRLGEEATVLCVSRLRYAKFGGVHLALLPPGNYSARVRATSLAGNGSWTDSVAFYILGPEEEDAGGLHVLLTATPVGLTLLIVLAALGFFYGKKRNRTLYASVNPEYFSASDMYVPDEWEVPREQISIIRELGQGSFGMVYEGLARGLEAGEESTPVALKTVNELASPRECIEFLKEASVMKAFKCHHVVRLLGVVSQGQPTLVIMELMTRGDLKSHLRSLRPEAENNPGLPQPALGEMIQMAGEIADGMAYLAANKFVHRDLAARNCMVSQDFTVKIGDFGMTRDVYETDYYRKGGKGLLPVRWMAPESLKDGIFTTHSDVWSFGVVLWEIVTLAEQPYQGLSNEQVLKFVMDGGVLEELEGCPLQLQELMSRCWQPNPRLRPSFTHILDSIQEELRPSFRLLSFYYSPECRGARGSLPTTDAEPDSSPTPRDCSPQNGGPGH

[23] = molecular target: Serine/threonine-protein kinase pim-2 (Homo sapiens) (UniProt Q9P1W9); assay: Inhibition of human PIM2 assessed as percent of control at 2000 nM by KINOMEscan assay relative to control
Serine/threonine-protein kinase pim-2 (Homo sapiens), sequence (Q9P1W9 whole entry, looked up): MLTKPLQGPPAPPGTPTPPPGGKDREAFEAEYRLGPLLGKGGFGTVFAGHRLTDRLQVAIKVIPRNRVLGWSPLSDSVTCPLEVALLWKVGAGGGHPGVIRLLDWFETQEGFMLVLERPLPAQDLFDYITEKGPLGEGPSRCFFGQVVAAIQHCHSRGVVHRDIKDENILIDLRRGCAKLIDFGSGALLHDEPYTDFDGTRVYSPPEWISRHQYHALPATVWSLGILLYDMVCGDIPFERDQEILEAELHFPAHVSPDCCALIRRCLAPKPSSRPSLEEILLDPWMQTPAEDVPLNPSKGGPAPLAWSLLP

[24] = molecular target: Glycogen synthase kinase-3 beta (Homo sapiens) (UniProt P49841); assay: Inhibition of human GSK3B assessed as percent of control at 2000 nM by KINOMEscan assay relative to control
[25] = molecular target: Serine/threonine-protein kinase N2 (Homo sapiens) (UniProt Q16513); assay: Inhibition of human PKN2 assessed as percent of control at 2000 nM by KINOMEscan assay relative to control
[26] = molecular target: Serine/threonine-protein kinase PLK1 (Homo sapiens) (UniProt P53350); assay: Inhibition of human PLK1 assessed as percent of control at 2000 nM by KINOMEscan assay relative to control
[27] = molecular target: Tyrosine-protein kinase JAK2 (Homo sapiens) (UniProt O60674); assay: Inhibition of human JAK2 JH1 catalytic domain assessed as percent of control at 2000 nM by KINOMEscan assay relative to control
[28] = molecular target: G protein-coupled receptor kinase 3 (Homo sapiens) (UniProt P35626); assay: Inhibition of human GRK3 assessed as percent of control at 2000 nM by KINOMEscan assay relative to control
G protein-coupled receptor kinase 3 (Homo sapiens), sequence (P35626 whole entry): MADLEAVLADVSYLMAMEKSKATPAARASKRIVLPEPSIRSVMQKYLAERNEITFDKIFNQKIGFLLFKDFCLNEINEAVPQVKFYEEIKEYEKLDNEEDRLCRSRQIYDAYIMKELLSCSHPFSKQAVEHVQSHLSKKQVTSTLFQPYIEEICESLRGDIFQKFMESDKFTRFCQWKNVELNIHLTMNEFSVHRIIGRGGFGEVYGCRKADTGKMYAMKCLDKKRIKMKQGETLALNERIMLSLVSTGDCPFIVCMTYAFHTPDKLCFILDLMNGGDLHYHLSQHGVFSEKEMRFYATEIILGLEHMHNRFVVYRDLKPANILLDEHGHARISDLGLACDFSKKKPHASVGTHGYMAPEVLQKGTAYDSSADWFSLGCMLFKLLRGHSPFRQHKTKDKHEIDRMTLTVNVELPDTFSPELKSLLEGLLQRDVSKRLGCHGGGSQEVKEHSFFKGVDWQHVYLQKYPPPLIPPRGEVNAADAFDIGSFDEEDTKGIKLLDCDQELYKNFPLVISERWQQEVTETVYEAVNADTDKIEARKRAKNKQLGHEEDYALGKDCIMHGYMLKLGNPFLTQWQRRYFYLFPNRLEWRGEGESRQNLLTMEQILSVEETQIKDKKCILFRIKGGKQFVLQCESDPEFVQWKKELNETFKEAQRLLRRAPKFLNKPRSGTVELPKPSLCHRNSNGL

[29] = tested on: Epidermal growth factor receptor (Homo sapiens), P00533 [G719C]; assay: Inhibition of human EGFR G719C mutant assessed as percent of control at 2000 nM by KINOMEscan assay relative to control
[30] = molecular target: Dual specificity mitogen-activated protein kinase kinase 4 (Homo sapiens) (UniProt P45985); assay: Inhibition of human MEK4 assessed as percent of control at 2000 nM by KINOMEscan assay relative to control
[31] = molecular target: Serine/threonine-protein kinase Nek6 (Homo sapiens) (UniProt Q9HC98); assay: Inhibition of human NEK6 assessed as percent of control at 2000 nM by KINOMEscan assay relative to control
Serine/threonine-protein kinase Nek6 (Homo sapiens), sequence (Q9HC98 whole entry): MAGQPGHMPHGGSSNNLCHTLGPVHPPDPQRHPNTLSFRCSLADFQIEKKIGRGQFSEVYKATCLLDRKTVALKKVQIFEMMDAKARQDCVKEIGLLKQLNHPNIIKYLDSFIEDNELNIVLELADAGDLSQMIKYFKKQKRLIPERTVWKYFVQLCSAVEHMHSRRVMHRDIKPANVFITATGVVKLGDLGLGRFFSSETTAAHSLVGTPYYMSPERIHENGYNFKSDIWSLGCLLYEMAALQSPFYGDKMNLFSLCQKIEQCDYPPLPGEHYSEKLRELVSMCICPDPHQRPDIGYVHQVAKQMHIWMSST

In the case of `CN(C)C(=O)c1ccc(N2CCCN(c3ccnc4sc(C(N)=O)c(N)c34)CC2)cc1`, the Activity [1] is reported as 100% and 97%, the Activity [2] is reported as 86% and 100% and the Activity [3] is reported as 90% and 87%. The Activity [4] was 98% and 99%, the Activity [5] was 100% and 91% and the Activity [6] was 80% and 96%. For the same molecule, the Activity [7] was 88% and 97%, the Activity [8] was 95% and 92% and the Activity [9] was 91% and 95%. For the same molecule, the Activity [10] was 100% and 92%, the Activity [11] was 100% and the Activity [12] was 95% and 83%. The Activity [13] was 100%, the Activity [14] was 91% and 100% and the Activity [15] was 90% and 100%. The Activity [16] was 75% and 85%, the Activity [17] was 96% and 97% and the Activity [18] was 82% and 99%. The Activity [19] was 96% and 100%, the Activity [20] was 86% and 97% and the Activity [21] was 95% and 82%. For the same molecule, the Activity [22] was 99% and 89%, the Activity [23] was 85% and 89% and the Activity [24] was 79% and 77%. For the same molecule, the Activity [25] was 100%, the Activity [26] was 95% and 89% and the Activity [27] was 100% and 93%. The Activity [28] was 99% and 87%, the Activity [29] was 97% and 100% and the Activity [30] was 69% and 74%. For the same molecule, the Activity [31] was 92% and 100%.
